Measurements taken from US11541056B2, “3-hydroxy-N-(3-(7H-pyrrolo[2,3-d]pyrimidin-4-yl)phenyl)pyrrolidine-1-carboxamide derivatives” (NOVARTIS AG, priority 2018, dated 2023).

How the values were obtained:
Format in all cases: cell-based
[1] = system: TMD8 cells; assay: Resazurin cell viability assay in DLBCL cells (TMD8); conditions: Homo sapiens, TMD8, 72 h, TMD8 cells (BTK dependent), 50% growth inhibition, read-out: TMD8 Prol GI50
Method in brief: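 Cells seeded at 1×10^4 per well in triplicate, treated 3 h later for 72 h with an 8-point 1:4 dilution series starting at 1 μM. Resazurin (13 μg/ml final) added for the last 2 h; resorufin fluorescence read at 530/600 nm. GI50 versus vehicle control, usually from ≥2 independent experiments.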

[2] = system: OCI-LY3 cells; assay: Resazurin cell viability assay in DLBCL cells (OCI-LY3); conditions: Homo sapiens, OCI-Ly3, 72 h, OCI-LY3 cells (BTK independent), 50% growth inhibition, read-out: OCI-LY3 Prol GI50
Method in brief: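 BTK-independent OCI-LY3 cells were treated 72 h at 37° C/5% CO2 with an 8-point 1:4 series from 10 μM, in triplicate, versus DMSO. Viability was read by resazurin (13 μg/ml final, 2 h) fluorescence at 530/600 nm. GI50 was curve-fitted, typically from ≥2 independent experiments.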

[3] = target: T1, BTK(C481S)-GFP (Homo sapiens, UniProt Q06187+Q96SW2, C481S); assay: BTK(C481S)-GFP protein abundance flow cytometry assay in TMD8 cells; conditions: for BTK (C481S) Amax %: % protein remaining at concentration of maximum degradation; for DC50: concentration at which 50% maximal degradation was observed
T1 construct: with a mutagenesis reaction on pENTR221-BTK (STOP-Leu); CHYSEL (cis-acting hydrolase element, 2A) remnant after GFP; mCherry is split off as a separate protein (C); expressed in transfected cells; host or cells: TMD8 cells, lentiviral transduction with pLenti6-BTK(C481S)-GFP-CHYSEL-mCherry
T1 sequence (Q06187 whole entry C481S): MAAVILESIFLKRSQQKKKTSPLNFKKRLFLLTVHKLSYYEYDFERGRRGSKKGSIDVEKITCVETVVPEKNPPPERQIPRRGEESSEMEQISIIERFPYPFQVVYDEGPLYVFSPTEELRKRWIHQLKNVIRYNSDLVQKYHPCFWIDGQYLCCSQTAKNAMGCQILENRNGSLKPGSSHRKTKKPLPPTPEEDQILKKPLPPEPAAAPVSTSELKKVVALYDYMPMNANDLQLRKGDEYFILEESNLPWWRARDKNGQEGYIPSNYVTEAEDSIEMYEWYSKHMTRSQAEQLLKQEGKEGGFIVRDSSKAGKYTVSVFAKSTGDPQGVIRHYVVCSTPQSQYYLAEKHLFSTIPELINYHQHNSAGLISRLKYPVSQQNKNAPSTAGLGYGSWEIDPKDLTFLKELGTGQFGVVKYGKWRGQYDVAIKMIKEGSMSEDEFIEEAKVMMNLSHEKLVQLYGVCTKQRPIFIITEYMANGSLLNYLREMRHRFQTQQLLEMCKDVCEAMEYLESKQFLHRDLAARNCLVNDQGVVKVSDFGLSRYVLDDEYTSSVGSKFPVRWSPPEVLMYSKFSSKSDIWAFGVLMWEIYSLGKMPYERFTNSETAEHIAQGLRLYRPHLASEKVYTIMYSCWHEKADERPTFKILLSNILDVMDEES
T1 sequence (Q96SW2 whole entry): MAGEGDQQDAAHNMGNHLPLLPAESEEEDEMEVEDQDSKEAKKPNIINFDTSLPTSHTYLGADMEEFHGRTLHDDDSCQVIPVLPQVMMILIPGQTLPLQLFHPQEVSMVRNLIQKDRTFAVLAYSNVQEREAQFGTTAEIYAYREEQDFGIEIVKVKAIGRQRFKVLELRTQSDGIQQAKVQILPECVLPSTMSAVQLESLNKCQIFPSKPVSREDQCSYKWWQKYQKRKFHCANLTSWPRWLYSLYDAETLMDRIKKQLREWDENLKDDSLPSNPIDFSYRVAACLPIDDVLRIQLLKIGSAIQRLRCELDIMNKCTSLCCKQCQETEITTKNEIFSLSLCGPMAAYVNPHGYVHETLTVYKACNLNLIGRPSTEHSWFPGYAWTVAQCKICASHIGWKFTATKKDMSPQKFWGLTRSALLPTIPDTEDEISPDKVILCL
T1 sequence (Q16531 whole entry partner): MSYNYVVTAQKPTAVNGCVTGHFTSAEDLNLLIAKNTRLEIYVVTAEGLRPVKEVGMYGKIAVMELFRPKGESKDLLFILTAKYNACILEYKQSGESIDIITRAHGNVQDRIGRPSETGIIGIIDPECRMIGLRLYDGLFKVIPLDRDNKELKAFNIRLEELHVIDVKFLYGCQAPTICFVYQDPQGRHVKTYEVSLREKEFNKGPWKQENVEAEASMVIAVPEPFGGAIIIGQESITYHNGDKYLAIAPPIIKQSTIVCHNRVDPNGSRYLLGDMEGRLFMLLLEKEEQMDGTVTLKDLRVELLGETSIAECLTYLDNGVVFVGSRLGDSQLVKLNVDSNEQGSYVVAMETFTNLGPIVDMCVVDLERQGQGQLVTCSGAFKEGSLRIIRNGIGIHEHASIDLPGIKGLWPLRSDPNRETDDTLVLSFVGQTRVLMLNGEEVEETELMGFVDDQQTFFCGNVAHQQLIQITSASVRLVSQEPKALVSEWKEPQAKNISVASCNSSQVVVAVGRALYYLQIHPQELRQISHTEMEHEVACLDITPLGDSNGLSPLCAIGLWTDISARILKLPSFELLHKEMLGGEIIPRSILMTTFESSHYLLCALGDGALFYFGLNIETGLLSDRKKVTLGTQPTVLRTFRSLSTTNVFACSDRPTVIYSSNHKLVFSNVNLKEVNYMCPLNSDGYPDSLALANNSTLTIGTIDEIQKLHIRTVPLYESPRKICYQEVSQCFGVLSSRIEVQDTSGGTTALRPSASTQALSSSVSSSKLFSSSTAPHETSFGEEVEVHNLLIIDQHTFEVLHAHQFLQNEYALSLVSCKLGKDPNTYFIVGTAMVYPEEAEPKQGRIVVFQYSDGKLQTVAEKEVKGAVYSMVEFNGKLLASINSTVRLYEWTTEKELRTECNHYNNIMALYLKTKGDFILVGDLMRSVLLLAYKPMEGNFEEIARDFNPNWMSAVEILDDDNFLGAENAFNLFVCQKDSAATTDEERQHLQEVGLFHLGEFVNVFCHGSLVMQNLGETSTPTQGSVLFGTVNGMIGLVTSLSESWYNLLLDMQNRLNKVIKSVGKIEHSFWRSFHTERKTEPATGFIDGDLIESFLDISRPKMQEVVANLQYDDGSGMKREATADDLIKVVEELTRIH
Description: Compounds of the invention were tested in the following cellular assays. The terms in Table 1 are defined as follows: DC50 refers to the concentration at which 50% maximal degradation was observed; deg Amax is the extent of degradation and the value refers to the % protein remaining at the concentration at which maximum degradation is seen; Prol GI50 refers to the proliferation data and defines the concentration at which 50% growth inhibition was observed compared to the vehicle treated control at the end of the incubation time. TMD8 cells are BTK dependent and OCI-LY3 cells are BTK independent.
BTK(C481S)-GFP Protein Abundance Flow Cytometry Assay in TMD8 Cells:
Degradation of BTK(C481S) was measured in TMD8 cells expressing BTK(C481S)-GFP and mCherry from a stably integrated second generation bicistronic BTK(C481S)-GFP-CHYSEL-mCherry construct. Reduction of the GFP signal measured by flow cytometry served as readout for BTK(C481S) degradation after degrader treatment.

SMILES	GI50 [1]	GI50 [2]	BTK (C481S) Amax % [3]	DC50 [3]
COc1ccc(C(=O)N2CCC3(CCN(CCc4ccc(-c5cc6c(-c7cc(F)cc(NC(=O)N8C[C@H](CC(C)C)[C@@H](O)C8)c7C)ncnc6[nH]5)cc4)CC3)CC2)cc1N1CCC(=O)NC1=O [Compound 15, (3R,4S)—N-(3-(6-(4-(2-(9-(3-(2,4-Dioxotetrahydropyrimidin-1(2H)-yl)-4-methoxybenzoyl)-3,9-diazaspiro[5.5]undecan-3-yl)ethyl)phenyl)-7H-pyrrolo[2,3-d]pyrimidin-4-yl)-5-fluoro-2-methylphenyl)-3-hydroxy-4-isobutylpyrrolidine-1-carboxamide]	0.22 nM	7250 nM	3.0%	0.9 nM
COc1ccc(C(=O)N2CCC(OC3CCN(CCc4ccc(-c5cc6c(-c7cc(F)cc(NC(=O)N8C[C@H](CC(C)C)[C@@H](O)C8)c7C)ncnc6[nH]5)cc4)CC3)CC2)cc1N1CCC(=O)NC1=O [Compound 13, (3R,4S)—N-(3-(6-(4-(2-(4-((1-(3-(2,4-Dioxotetrahydropyrimidin-1(2H)-yl)-4-methoxybenzoyl)piperidin-4-yl)oxy)piperidin-1-yl)ethyl)phenyl)-7H-pyrrolo[2,3-d]pyrimidin-4-yl)-5-fluoro-2-methylphenyl)-3-hydroxy-4-isobutylpyrrolidine-1-carboxamide]	0.24 nM	9220 nM	1.1%	0.2 nM
